# Where two headings read alike, the source gives them in different places. *1 amine or outer side, *2 acyl side, *3 side chain or, on linkers, in order; H or OH if unused. Where a SMILES comes first, the peptide text is derived from it. Bridges are numbered along the chain shown (N, C = ends). [ ]: non-standard residue; d: D form. The star is where a group is joined. X75 = CC(C)C(=O)N1C2C=C(c3ccc(Cl)cc3C[C@@H](C(=O)[*:2])N(C)[*:1])CC1COC2; X57 = CC(C)C(=O)N1C2C=C(c3ccc(Cl)cc3C[C@@H](C(=O)[*:2])N(C)[*:1])CC1CC2; X24 = CN([C@@H](Cc1cc(Cl)ccc1-c1cnn(C(C)(C)C)c1)C(=O)[*:2])[*:1]; X68 = CN([C@@H](Cc1cc(Cl)ccc1-c1cnn(C2CC2)c1)C(=O)[*:2])[*:1]; X14 = Cc1nc(C)c(-c2ccc(Cl)cc2C[C@@H](C(=O)[*:2])N(C)[*:1])s1; X26 = CN([C@@H](Cc1cc(F)ccc1-c1cnn(C2CC2)c1)C(=O)[*:2])[*:1]; X89 = CN([C@@H](Cc1cc(Cl)ccc1-c1cnn(CC#N)c1)C(=O)[*:2])[*:1]; NMehhhLys(Me) = CN([C@@H](CCCCCCCN(C)[*:3])C(=O)[*:2])[*:1]; Spiro(3.3)heptane2CO(2-CF3) = O=C(C1(C(F)(F)F)CC2(CCC2)C1)*; X15 = CN([C@@H](Cc1cc(Cl)ccc1-c1cnn2c1CCC2)C(=O)[*:2])[*:1]; X5 = CN([C@@H](Cc1cc(Cl)ccc1-c1cnn2c1OCCC2)C(=O)[*:2])[*:1]; X51 = CSc1cncc(-c2ccc(Cl)cc2C[C@@H](C(=O)[*:2])N(C)[*:1])c1; X22 = CN([C@@H](Cc1cc(Cl)ccc1-c1cnn(C)c1)C(=O)[*:2])[*:1]; X109 = CN([C@@H](Cc1cc(Cl)ccc1-c1ccncc1)C(=O)[*:2])[*:1]; NMe(hhhLys) = CN([C@@H](CCCCCCCN[*:3])C(=O)[*:2])[*:1]; Cyclobutanecarbonyl(1-CF3) = O=C(C1(C(F)(F)F)CCC1)*; cBuCO(3,3-F2-1-CF3) = O=C(C1(C(F)(F)F)CC(F)(F)C1)*; Pro(trans-4-F) = O=C(O)[C@@H]1C[C@@H](F)CN1; Gly(cPr) = N[C@H](C(=O)O)C1CC1
# Assays:
# CyclinA2/CDK2 = target: T1, CyclinA2/CDK2 (Homo sapiens, UniProt P20248); assay: Fluorescence Polarization (FP) competitive binding assay, Cyclin A2/Cdk2;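 note: plates equilibrated two hours at room temperature before polarization reading, IC50 fitted from eight-concentration compound titration curves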
# T1 construct: purchased CRELUX Protein Services
# CyclinB1/CDK1 = target: T2, CyclinB1/CDK1 (Homo sapiens, UniProt P14635); assay: Fluorescence Polarization (FP) competitive binding assay, Cyclin B1/Cdk1;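 note: fluorescence polarization read after equilibration at room temperature, with IC50 taken from serially diluted dose-response curves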
# T2 construct: purchased Eurofins, discovery 14-450
# CyclinE1/CDK2 = target: T3, CyclinE1/CDK2 (Homo sapiens, UniProt P24864); assay: Fluorescence Polarization (FP) competitive binding assay, Cyclin E1/Cdk2;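 note: readings taken after two-hour equilibration at room temperature in HEPES buffer with NaCl, DTT, NP-40 and BSA, IC50 fitted from eight-concentration serial dilution series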
# T3 construct: purchased Eurofins, discovery 14-475
# WI-38 cells = assay: MTT proliferation assay, WI-38; assay type: cell-based; conditions: 3 days compound exposure, 1:3 serial dilution starting at 10 μM;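 note: Eight- or ten-point dilution series, with exposure length chosen to span about three to four cell doublings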
# NCI-H1048 cells = assay: MTT proliferation assay, NCI-H1048; assay type: cell-based; conditions: 5 days compound exposure, 1:3 serial dilution starting at 10 μM;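 note: Dose-response in 96-well plates over 8 or 10 concentration points, with exposure spanning 3-4 cell doublings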
# OVCAR3 cells = assay: MTT proliferation assay, OVCAR3; assay type: cell-based; conditions: 5 days compound exposure, 1:3 serial dilution starting at 10 μM;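 note: compound given as an 8- or 10-point series, one day after plating, with exposure covering roughly 3-4 cell doublings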
# [1] = 8 nM Cyclin A2/Cdk2, 2 nM FAM probe, average of 2-3 independent experiments, read-out: Cyclin A FP IC50
# [2] = 10 nM Cyclin B1/Cdk1, 2 nM FAM probe; average of 2-3 independent experiments; read-out: Cyclin B FP IC50
# [3] = 10 nM Cyclin E1/Cdk2, 2 nM FAM probe, average of 2-3 independent experiments, read-out: Cyclin E FP IC50
# [4] = read-out: Cyclin B FP IC50; 10 nM Cyclin B1/Cdk1, 2 nM FAM probe; average of 2-3 independent experiments
SMILES,IC50 (CyclinA2/CDK2; [1]) [nM],IC50 (CyclinB1/CDK1; [2]) [nM],IC50 (CyclinE1/CDK2; [3]) [nM],GI50 (WI-38 cells) [µM],GI50 (NCI-H1048 cells) [nM],GI50 (OVCAR3 cells) [nM],IC50 (CyclinA2/CDK2) [nM],IC50 (CyclinB1/CDK1; [4]) [nM],IC50 (CyclinE1/CDK2) [nM]
CC(C)C[C@@H]1NC(=O)[C@@H](N(C)C(=O)[C@@H](NC(=O)[C@@H]2C[C@@H](F)CN2C(=O)C2(C(F)(F)F)CCC2)C2CC2)CCCCCCCN(C)C(=O)[C@H](Cc2cc(F)ccc2-c2cnn(C3CC3)c2)N(C)C1=O [Example 186] ({Cyclobutanecarbonyl(1-CF3)}-[Pro(trans-4-F)][Gly(cPr)][NMehhhLys(Me)]L[X26]; lactam 3-C),20,20,100,8.68,10,10,,,
"CC(C)C[C@@H]1NC(=O)[C@@H](N(C)C(=O)[C@@H](NC(=O)[C@@H]2C[C@@H](F)CN2C(=O)C2(C(F)(F)F)CC(F)(F)C2)C2CC2)CCCCCCCN(C)C(=O)[C@H](Cc2cc(Cl)ccc2-c2cnn(C(C)(C)C)c2)N(C)C1=O [Example 187] ({cBuCO(3,3-F2-1-CF3)}-[Pro(trans-4-F)][Gly(cPr)][NMehhhLys(Me)]L[X24]; lactam 3-C)",20,20,340,8.66,10,10,,,
CC(C)C[C@@H]1NC(=O)[C@@H](N(C)C(=O)[C@@H](NC(=O)[C@@H]2C[C@@H](F)CN2C(=O)C2(C(F)(F)F)CCC2)C2CC2)CCCCCCCNC(=O)[C@H](Cc2cc(Cl)ccc2-c2cnn(C3CC3)c2)N(C)C1=O [Example 188] ({Cyclobutanecarbonyl(1-CF3)}-[Pro(trans-4-F)][Gly(cPr)][NMe(hhhLys)]L[X68]; lactam 3-C),20,20,230,3.08,10,20,,,
CC(C)C[C@@H]1NC(=O)[C@@H](N(C)C(=O)[C@@H](NC(=O)[C@@H]2C[C@@H](F)CN2C(=O)C2(C(F)(F)F)CC(F)(F)C2)C2CC2)CC=CCCCCNC(=O)[C@H](Cc2cc(Cl)ccc2-c2cnn(C3CC3)c2)N(C)C1=O [Example 189],50,20,850,3.67,130,80,,,
"CC(C)C[C@@H]1NC(=O)[C@@H](N(C)C(=O)[C@@H](NC(=O)[C@@H]2C[C@@H](F)CN2C(=O)C2(C(F)(F)F)CC(F)(F)C2)C2CC2)CCCCCCCN(C)C(=O)[C@H](Cc2cc(Cl)ccc2-c2cnn3c2CCC3)N(C)C1=O [Example 190] ({cBuCO(3,3-F2-1-CF3)}-[Pro(trans-4-F)][Gly(cPr)][NMehhhLys(Me)]L[X15]; lactam 3-C)",20,20,660,1.98,10,10,,,
"CC(C)C[C@@H]1NC(=O)[C@@H](N(C)C(=O)[C@@H](NC(=O)[C@@H]2C[C@@H](F)CN2C(=O)C2(C(F)(F)F)CC(F)(F)C2)C2CC2)CCCCCCCN(C)C(=O)[C@H](Cc2cc(Cl)ccc2-c2cnn3c2OCCC3)N(C)C1=O [Example 191] ({cBuCO(3,3-F2-1-CF3)}-[Pro(trans-4-F)][Gly(cPr)][NMehhhLys(Me)]L[X5]; lactam 3-C)",20,20,260,2.05,10,10,,,
"CC(C)C[C@@H]1NC(=O)[C@@H](N(C)C(=O)[C@@H](NC(=O)[C@@H]2C[C@@H](F)CN2C(=O)C2(C(F)(F)F)CC(F)(F)C2)C2CC2)CCCCCCCN(C)C(=O)[C@H](Cc2cc(Cl)ccc2-c2ccncc2)N(C)C1=O [Example 192] ({cBuCO(3,3-F2-1-CF3)}-[Pro(trans-4-F)][Gly(cPr)][NMehhhLys(Me)]L[X109]; lactam 3-C)",20,20,1140,3.51,20,20,,,
"CC(C)C[C@@H]1NC(=O)[C@@H](N(C)C(=O)[C@@H](NC(=O)[C@@H]2C[C@@H](F)CN2C(=O)C2(C(F)(F)F)CC(F)(F)C2)C2CC2)CCCCCCCNC(=O)[C@H](Cc2cc(Cl)ccc2C2=CC3CCC(C2)N3C(=O)C(C)C)N(C)C1=O (stereo partly drawn) [Example 193] ({cBuCO(3,3-F2-1-CF3)}-[Pro(trans-4-F)][Gly(cPr)][NMe(hhhLys)]L[X57]; lactam 3-C)",20,20,710,7.58,10,20,,,
"CC(C)C[C@@H]1NC(=O)[C@@H](N(C)C(=O)[C@@H](NC(=O)[C@@H]2C[C@@H](F)CN2C(=O)C2(C(F)(F)F)CC(F)(F)C2)C2CC2)CCCCCCCNC(=O)[C@H](Cc2cc(Cl)ccc2C2=CC3COCC(C2)N3C(=O)C(C)C)N(C)C1=O (stereo partly drawn) [Example 194] ({cBuCO(3,3-F2-1-CF3)}-[Pro(trans-4-F)][Gly(cPr)][NMe(hhhLys)]L[X75]; lactam 3-C)",20,20,540,5.61,10,10,,,
"CSc1cncc(-c2ccc(Cl)cc2C[C@H]2C(=O)N(C)CCCCCCC[C@H](N(C)C(=O)[C@@H](NC(=O)[C@@H]3C[C@@H](F)CN3C(=O)C3(C(F)(F)F)CC(F)(F)C3)C3CC3)C(=O)N[C@@H](CC(C)C)C(=O)N2C)c1 [Example 202] ({cBuCO(3,3-F2-1-CF3)}-[Pro(trans-4-F)][Gly(cPr)][NMehhhLys(Me)]L[X51]; lactam 3-C)",50,20,1490,9.11,40,60,,,
CC(C)C[C@@H]1NC(=O)[C@@H](N(C)C(=O)[C@@H](NC(=O)[C@@H]2C[C@@H](F)CN2C(=O)C2(C(F)(F)F)CC3(CCC3)C2)C2CC2)CCCCCCCN(C)C(=O)[C@H](Cc2cc(Cl)ccc2-c2cnn(C)c2)N(C)C1=O [Example 203] ({Spiro(3.3)heptane2CO(2-CF3)}-[Pro(trans-4-F)][Gly(cPr)][NMehhhLys(Me)]L[X22]; lactam 3-C),,,,3.7,60,50,40,20,1260
"Cc1nc(C)c(-c2ccc(Cl)cc2C[C@H]2C(=O)N(C)CCCCCCC[C@H](N(C)C(=O)[C@@H](NC(=O)[C@@H]3C[C@@H](F)CN3C(=O)C3(C(F)(F)F)CC(F)(F)C3)C3CC3)C(=O)N[C@@H](CC(C)C)C(=O)N2C)s1 [Example 207] ({cBuCO(3,3-F2-1-CF3)}-[Pro(trans-4-F)][Gly(cPr)][NMehhhLys(Me)]L[X14]; lactam 3-C)",50,20,2730,4.94,30,40,,,
"CC(C)C[C@@H]1NC(=O)[C@@H](N(C)C(=O)[C@@H](NC(=O)[C@@H]2C[C@@H](F)CN2C(=O)C2(C(F)(F)F)CC(F)(F)C2)C2CC2)CCCCCCCN(C)C(=O)[C@H](Cc2cc(Cl)ccc2-c2cnn(CC#N)c2)N(C)C1=O [Example 216] ({cBuCO(3,3-F2-1-CF3)}-[Pro(trans-4-F)][Gly(cPr)][NMehhhLys(Me)]L[X89]; lactam 3-C)",,,,15.6,10,10,30,20,470
CCN(C(=O)[C@@H](NC(=O)[C@@H]1C[C@@H](F)CN1C(=O)C1(C(F)(F)F)CC(F)(F)C1)C1CC1)[C@H]1CCCCCCCN(C)C(=O)[C@H](Cc2cc(Cl)cnc2OC2CC2)N(C)C(=O)[C@H](CC(C)C)NC1=O [Example 219],,,,14.1,40,80,100,20,1430
CCN(C(=O)[C@@H](NC(=O)[C@@H]1C[C@@H](F)CN1C(=O)C1(C(F)(F)F)CCC1)C1CC1)[C@H]1CCCCCCCN(C)C(=O)[C@H](Cc2cc(Cl)cnc2OC2CC2)N(C)C(=O)[C@H](CC(C)C)NC1=O [Example 220],,,,5.2,30,70,90,20,680
CCN(C(=O)[C@@H](NC(=O)[C@@H]1C[C@@H](F)CN1C(=O)[C@@]1(C(F)(F)F)CCCCO1)C1CC1)[C@H]1CCCCCCCN(C)C(=O)[C@H](Cc2cc(Cl)cnc2OC2CC2)N(C)C(=O)[C@H](CC(C)C)NC1=O [Example 221],,,,16.6,20,30,60,20,180
